Earlier results as cited in patent publication US8143269B2, “Inhibitors of store operated calcium release” (Calcimedica, Inc., priority 2008, dated 2012).

Columns and labels:
[1] = target: STIM1 and Orai1 in human embryonic kidney 293 cells (HEK293 cells) (Homo sapiens, UniProt Q96D31); conditions: HEK293 cells coexpressing STIM1 and Orai1
[2] = tested on: Jurkat cells
[3] = tested on: colon cancer cells

Chain of STIM1 and Orai1 in human embryonic kidney 293 cells (HEK293 cells) (Q96D31 whole entry): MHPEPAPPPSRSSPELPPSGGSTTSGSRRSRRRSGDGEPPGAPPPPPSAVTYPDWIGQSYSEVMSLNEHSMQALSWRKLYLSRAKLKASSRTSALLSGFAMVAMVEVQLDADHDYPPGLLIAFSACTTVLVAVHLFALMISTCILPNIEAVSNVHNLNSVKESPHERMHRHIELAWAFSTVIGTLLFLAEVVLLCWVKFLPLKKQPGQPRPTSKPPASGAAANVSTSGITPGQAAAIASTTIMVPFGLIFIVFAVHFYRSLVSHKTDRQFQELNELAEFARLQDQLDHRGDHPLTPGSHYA

Row | Compound | block of store-dependent Ca2+ entry [1] | inhibition of SOCE [2] | inhibition of proliferation [2] | inhibition of SOCE [3] | inhibition of proliferation [3]
1 | NCCOB(c1ccccc1)c1ccccc1 [2-aminoethoxydiphenylborate] | completely blocked | – | – | – | –
2 | Cc1nnsc1C(=O)Nc1ccc(-n2nc(C(F)(F)F)cc2C(F)(F)F)cc1 [BTP-2] | – | inhibits | inhibits | inhibits | inhibits
